# Results reported in PMC9506414, “Novel 2,6,9-Trisubstituted Purines as Potent CDK Inhibitors Alleviating Trastuzumab-Resistance of HER2-Positive Breast Cancers” (Pharmaceuticals, 2022).
# Experiments:
# Test in all cases: Kinome-wide inhibition profiling
# Assay type in all cases: biochemical
# ULK1 = biological target: T1, ULK1 (Homo sapiens, UniProt O75385)
# T1 construct: purchased Reaction Biology Corp
# Protocol: (§1) In vitro CDK12/cyclinK assays for all compounds and in vitro kinome-wide inhibition profiling of 30d at 10 μM were performed by a CRO company (Reaction Biology Corp., San Diego, CA, USA).
# MYLK2 = biological target: T2, MYLK2 (Homo sapiens, UniProt Q9H1R3)
# T2 construct: purchased Reaction Biology Corp
# Protocol: as §1
# CAMK1b = biological target: T3, CAMK1b (Homo sapiens, UniProt Q6P2M8)
# T3 construct: purchased Reaction Biology Corp
# Protocol: as §1
# MAP4K2 = biological target: T4, MAP4K2 (Homo sapiens, UniProt Q12851)
# T4 construct: purchased Reaction Biology Corp
# Protocol: as §1
# CSNK2A2 = biological target: T5, CSNK2A2 (Homo sapiens, UniProt P19784)
# T5 construct: purchased Reaction Biology Corp
# Protocol: as §1
# MARK4 = biological target: T6, MARK4 (Homo sapiens, UniProt Q96L34)
# T6 construct: purchased Reaction Biology Corp
# Protocol: as §1
# ACVR1B = biological target: T7, ACVR1B (Homo sapiens, UniProt P36896)
# T7 construct: purchased Reaction Biology Corp
# Protocol: as §1
# PAK5 = biological target: T8, PAK5 (Homo sapiens, UniProt Q9P286)
# T8 construct: purchased Reaction Biology Corp
# Protocol: as §1
# MKK7 = biological target: T9, MKK7 (Homo sapiens, UniProt O14733)
# T9 construct: purchased Reaction Biology Corp
# T9 sequence (O14733 whole entry): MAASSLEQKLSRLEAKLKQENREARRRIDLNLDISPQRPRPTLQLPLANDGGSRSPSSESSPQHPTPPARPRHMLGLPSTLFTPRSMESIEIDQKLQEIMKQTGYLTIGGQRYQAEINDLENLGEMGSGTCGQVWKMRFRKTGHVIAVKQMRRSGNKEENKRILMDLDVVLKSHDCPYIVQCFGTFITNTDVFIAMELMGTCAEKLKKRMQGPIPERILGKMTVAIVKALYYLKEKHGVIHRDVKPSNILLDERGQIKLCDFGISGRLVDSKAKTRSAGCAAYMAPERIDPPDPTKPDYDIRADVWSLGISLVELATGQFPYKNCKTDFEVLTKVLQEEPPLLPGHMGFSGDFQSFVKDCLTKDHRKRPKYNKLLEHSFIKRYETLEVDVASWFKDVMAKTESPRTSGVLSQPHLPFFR
# Protocol: as §1
# ABL1 = biological target: T10, ABL1 (Homo sapiens, UniProt P00519)
# T10 construct: purchased Reaction Biology Corp
# Protocol: as §1
# P38-alpha = biological target: T11, P38-alpha (Homo sapiens, UniProt Q16539)
# T11 construct: purchased Reaction Biology Corp
# Protocol: as §1
# [1] = biological target: T12, RPS6KA4(Kin.Dom.1-N-term) (Homo sapiens, UniProt O75676)
# T12 construct: RPS6KA4(Kin.Dom.1-N-term); purchased Reaction Biology Corp
# Protocol: as §1
# PAK3 = biological target: T13, PAK3 (Homo sapiens, UniProt O75914)
# T13 construct: purchased Reaction Biology Corp
# Protocol: as §1
# CDK9/cyclinT1 = biological target: T14, CDK9/cyclinT1 (Homo sapiens, UniProt P50750)
# T14 construct: purchased Reaction Biology Corp
# T14 sequence (P50750 whole entry): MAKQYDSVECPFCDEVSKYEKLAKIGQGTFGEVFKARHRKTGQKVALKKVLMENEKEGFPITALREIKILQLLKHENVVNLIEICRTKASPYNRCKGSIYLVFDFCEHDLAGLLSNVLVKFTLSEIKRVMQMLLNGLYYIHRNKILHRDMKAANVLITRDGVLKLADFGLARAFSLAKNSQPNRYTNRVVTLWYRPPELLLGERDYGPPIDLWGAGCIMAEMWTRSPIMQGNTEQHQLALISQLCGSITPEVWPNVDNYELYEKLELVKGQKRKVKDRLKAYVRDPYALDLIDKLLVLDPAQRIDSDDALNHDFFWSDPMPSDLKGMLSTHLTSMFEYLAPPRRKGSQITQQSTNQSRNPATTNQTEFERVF
# T14 sequence (O60563 whole entry partner): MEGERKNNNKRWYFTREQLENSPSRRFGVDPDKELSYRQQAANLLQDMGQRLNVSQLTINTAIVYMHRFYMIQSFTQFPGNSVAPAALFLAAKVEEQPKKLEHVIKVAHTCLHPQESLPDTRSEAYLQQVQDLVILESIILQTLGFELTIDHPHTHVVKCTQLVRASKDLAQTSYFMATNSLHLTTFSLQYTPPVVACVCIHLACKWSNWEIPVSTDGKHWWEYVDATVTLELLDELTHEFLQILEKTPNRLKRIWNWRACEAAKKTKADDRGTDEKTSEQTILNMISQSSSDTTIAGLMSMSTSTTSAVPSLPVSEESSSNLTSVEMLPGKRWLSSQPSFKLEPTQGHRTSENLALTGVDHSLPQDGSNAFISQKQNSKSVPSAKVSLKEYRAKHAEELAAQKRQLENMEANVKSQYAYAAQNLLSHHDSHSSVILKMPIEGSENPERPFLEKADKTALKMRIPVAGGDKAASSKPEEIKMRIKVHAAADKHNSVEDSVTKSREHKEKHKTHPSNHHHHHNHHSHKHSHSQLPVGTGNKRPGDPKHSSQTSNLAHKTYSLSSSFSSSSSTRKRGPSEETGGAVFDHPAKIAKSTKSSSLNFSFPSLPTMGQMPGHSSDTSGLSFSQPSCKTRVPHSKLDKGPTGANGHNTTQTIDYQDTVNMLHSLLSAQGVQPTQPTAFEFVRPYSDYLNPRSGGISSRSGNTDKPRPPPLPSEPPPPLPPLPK
# Protocol: as §1
# MNK2 = biological target: T15, MNK2 (Homo sapiens, UniProt Q9HBH9)
# T15 construct: purchased Reaction Biology Corp
# Protocol: as §1
# ERK7 = biological target: T16, ERK7 (Homo sapiens, UniProt Q8TD08)
# T16 construct: purchased Reaction Biology Corp
# Protocol: as §1
# ERK1 = biological target: T17, ERK1 (Homo sapiens, UniProt P27361)
# T17 construct: purchased Reaction Biology Corp
# Protocol: as §1
# DAPK1 = biological target: T18, DAPK1 (Homo sapiens, UniProt P53355)
# T18 construct: purchased Reaction Biology Corp
# Protocol: as §1
# EPHB4 = biological target: T19, EPHB4 (Homo sapiens, UniProt P54760)
# T19 construct: purchased Reaction Biology Corp
# Protocol: as §1
# MET = biological target: T20, MET (Homo sapiens, UniProt P08581)
# T20 construct: purchased Reaction Biology Corp
# Protocol: as §1
# TNK1 = biological target: T21, TNK1 (Homo sapiens, UniProt Q13470)
# T21 construct: purchased Reaction Biology Corp
# Protocol: as §1
# EPHA3 = biological target: T22, EPHA3 (Homo sapiens, UniProt P29320)
# T22 construct: purchased Reaction Biology Corp
# Protocol: as §1
# PRKCQ = biological target: T23, PRKCQ (Homo sapiens, UniProt Q04759)
# T23 construct: purchased Reaction Biology Corp
# Protocol: as §1
# VRK2 = biological target: T24, VRK2 (Homo sapiens, UniProt Q86Y07)
# T24 construct: purchased Reaction Biology Corp
# Protocol: as §1
# DAPK3 = biological target: T25, DAPK3 (Homo sapiens, UniProt O43293)
# T25 construct: purchased Reaction Biology Corp
# Protocol: as §1
# DYRK2 = biological target: T26, DYRK2 (Homo sapiens, UniProt Q92630)
# T26 construct: purchased Reaction Biology Corp
# Protocol: as §1
# IKK-alpha = biological target: T27, IKK-alpha (Homo sapiens, UniProt O15111)
# T27 construct: purchased Reaction Biology Corp
# Protocol: as §1
# JAK2 = biological target: T28, JAK2 (Homo sapiens, UniProt O60674)
# T28 construct: purchased Reaction Biology Corp
# Protocol: as §1
# MYLK3 = biological target: T29, MYLK3 (Homo sapiens, UniProt Q32MK0)
# T29 construct: purchased Reaction Biology Corp
# T29 sequence (Q32MK0 whole entry): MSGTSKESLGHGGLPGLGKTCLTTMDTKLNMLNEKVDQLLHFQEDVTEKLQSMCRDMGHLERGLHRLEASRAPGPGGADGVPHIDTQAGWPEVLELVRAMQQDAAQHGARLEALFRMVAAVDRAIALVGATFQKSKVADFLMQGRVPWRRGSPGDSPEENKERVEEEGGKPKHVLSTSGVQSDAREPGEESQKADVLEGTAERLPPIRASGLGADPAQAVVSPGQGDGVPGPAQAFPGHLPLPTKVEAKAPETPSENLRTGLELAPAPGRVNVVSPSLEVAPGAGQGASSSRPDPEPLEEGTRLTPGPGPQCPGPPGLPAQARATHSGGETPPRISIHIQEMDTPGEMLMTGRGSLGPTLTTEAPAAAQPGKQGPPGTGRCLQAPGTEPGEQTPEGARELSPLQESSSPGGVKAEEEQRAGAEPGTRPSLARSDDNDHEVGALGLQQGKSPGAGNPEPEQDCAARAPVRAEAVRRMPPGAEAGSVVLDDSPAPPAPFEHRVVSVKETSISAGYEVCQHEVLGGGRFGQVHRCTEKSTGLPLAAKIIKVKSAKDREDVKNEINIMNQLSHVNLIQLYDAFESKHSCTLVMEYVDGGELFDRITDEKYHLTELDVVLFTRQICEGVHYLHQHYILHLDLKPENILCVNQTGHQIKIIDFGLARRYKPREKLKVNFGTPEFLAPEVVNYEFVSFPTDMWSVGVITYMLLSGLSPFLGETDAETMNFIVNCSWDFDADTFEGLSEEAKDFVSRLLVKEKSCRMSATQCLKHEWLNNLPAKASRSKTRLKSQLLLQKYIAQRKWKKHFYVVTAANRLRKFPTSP
# Protocol: as §1
# Src = biological target: T30, Src (Homo sapiens, UniProt P12931)
# T30 construct: purchased Reaction Biology Corp
# Protocol: as §1
# CAMK2a = biological target: T31, CAMK2a (Homo sapiens, UniProt Q9UQM7)
# T31 construct: purchased Reaction Biology Corp
# Protocol: as §1
# PLK3 = biological target: T32, PLK3 (Homo sapiens, UniProt Q9H4B4)
# T32 construct: purchased Reaction Biology Corp
# T32 sequence (Q9H4B4 whole entry): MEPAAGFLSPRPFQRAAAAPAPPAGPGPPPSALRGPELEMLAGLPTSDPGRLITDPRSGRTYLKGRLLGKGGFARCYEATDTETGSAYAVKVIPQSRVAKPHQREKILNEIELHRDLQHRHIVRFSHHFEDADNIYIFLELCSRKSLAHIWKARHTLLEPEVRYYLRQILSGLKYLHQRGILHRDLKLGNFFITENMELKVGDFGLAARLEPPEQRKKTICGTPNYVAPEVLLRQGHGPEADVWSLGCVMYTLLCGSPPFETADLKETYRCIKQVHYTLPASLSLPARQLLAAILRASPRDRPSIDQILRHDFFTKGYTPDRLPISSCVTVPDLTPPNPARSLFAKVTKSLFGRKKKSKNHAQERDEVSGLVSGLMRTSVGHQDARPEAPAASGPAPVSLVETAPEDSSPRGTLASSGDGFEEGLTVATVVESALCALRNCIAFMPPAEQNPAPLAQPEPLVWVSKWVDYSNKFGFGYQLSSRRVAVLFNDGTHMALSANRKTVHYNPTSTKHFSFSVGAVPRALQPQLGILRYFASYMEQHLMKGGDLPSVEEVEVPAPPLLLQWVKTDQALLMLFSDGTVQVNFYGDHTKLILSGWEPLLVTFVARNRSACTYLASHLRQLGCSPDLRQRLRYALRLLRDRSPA
# Protocol: as §1
# CSNK1G3 = biological target: T33, CSNK1G3 (Homo sapiens, UniProt Q9Y6M4)
# T33 construct: purchased Reaction Biology Corp
# Protocol: as §1
# JAK1 = biological target: T34, JAK1 (Homo sapiens, UniProt P23458)
# T34 construct: purchased Reaction Biology Corp
# Protocol: as §1
# STK33 = biological target: T35, STK33 (Homo sapiens, UniProt Q9BYT3)
# T35 construct: purchased Reaction Biology Corp
# Protocol: as §1
# TEC = biological target: T36, TEC (Homo sapiens, UniProt P42680)
# T36 construct: purchased Reaction Biology Corp
# Protocol: as §1
# MAP3K1 = biological target: T37, MAP3K1 (Homo sapiens, UniProt Q13233)
# T37 construct: purchased Reaction Biology Corp
# Protocol: as §1
# CDC7/DBF4 = biological target: T38, CDC7/DBF4 (Homo sapiens, UniProt O00311)
# T38 construct: purchased Reaction Biology Corp
# Protocol: as §1
# VEGFR2 = biological target: T39, VEGFR2 (Homo sapiens, UniProt P35968)
# T39 construct: purchased Reaction Biology Corp
# Protocol: as §1
# FYN = biological target: T40, FYN (Homo sapiens, UniProt P06241)
# T40 construct: purchased Reaction Biology Corp
# Protocol: as §1
# MLK2 = biological target: T41, MLK2 (Homo sapiens, UniProt Q02779)
# T41 construct: purchased Reaction Biology Corp
# T41 sequence (Q02779 whole entry): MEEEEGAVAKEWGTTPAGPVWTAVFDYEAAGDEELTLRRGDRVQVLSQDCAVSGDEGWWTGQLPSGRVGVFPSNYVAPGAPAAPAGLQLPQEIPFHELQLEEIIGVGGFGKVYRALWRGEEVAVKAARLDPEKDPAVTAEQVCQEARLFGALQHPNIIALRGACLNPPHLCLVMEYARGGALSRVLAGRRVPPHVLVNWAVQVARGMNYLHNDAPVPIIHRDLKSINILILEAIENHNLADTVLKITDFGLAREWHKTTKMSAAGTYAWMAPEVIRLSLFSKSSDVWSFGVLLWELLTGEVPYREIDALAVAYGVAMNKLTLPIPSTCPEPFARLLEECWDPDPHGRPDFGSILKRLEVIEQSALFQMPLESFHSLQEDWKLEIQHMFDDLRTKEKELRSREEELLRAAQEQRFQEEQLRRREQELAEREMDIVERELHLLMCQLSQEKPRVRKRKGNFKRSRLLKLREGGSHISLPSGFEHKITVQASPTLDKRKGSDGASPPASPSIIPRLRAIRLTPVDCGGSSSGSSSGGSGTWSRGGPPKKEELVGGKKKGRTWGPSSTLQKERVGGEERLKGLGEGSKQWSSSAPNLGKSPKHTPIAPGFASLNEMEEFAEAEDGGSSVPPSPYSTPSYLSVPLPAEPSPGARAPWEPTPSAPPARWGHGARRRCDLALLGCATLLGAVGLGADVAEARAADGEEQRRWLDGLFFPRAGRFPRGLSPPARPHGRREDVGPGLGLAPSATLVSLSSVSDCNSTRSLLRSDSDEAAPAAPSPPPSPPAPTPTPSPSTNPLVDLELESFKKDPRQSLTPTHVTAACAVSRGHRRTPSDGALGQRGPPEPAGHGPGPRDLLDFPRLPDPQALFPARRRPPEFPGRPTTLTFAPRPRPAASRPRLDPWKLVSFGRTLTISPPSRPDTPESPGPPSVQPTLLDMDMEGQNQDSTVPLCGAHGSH
# Protocol: as §1
# CAMK1a = biological target: T42, CAMK1a (Homo sapiens, UniProt Q14012)
# T42 construct: purchased Reaction Biology Corp
# Protocol: as §1
# PAK6 = biological target: T43, PAK6 (Homo sapiens, UniProt Q9NQU5)
# T43 construct: purchased Reaction Biology Corp
# Protocol: as §1
# T1 sequence (O75385 whole entry): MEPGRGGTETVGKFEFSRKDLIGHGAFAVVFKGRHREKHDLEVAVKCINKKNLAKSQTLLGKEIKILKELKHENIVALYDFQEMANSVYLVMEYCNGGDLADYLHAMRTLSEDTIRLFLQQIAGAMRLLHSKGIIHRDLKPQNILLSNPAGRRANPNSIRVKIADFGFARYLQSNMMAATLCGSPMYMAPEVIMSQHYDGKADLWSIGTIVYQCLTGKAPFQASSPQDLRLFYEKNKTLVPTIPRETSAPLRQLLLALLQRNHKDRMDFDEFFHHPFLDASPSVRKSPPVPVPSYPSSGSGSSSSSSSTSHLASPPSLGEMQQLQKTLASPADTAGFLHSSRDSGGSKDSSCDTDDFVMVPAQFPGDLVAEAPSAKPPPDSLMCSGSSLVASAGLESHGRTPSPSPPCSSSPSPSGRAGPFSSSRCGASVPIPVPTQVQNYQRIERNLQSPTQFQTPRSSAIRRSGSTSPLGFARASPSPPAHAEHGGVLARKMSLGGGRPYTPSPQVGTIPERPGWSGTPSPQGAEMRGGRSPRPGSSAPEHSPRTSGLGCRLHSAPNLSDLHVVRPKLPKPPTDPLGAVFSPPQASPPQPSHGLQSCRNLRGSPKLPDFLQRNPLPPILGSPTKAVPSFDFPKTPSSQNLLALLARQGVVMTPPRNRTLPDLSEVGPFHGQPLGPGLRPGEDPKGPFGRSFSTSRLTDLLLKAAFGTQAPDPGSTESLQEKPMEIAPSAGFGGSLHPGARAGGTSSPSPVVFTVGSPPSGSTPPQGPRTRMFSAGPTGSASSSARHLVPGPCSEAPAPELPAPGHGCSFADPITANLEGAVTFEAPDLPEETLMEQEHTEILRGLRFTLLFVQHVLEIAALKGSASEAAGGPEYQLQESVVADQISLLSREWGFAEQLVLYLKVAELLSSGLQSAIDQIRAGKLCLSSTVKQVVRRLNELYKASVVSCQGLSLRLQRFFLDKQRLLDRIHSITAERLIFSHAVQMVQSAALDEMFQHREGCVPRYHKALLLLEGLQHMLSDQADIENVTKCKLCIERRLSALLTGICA
smiles,measurement,setting,value
"CCn1cnc2c(NCc3ccc(-c4ccccn4)nc3)nc(-c3ccc(N)nc3)nc21 [Compound 30d, N-([2,2′-Bipyridin]-5-ylmethyl)-2-(6-aminopyridin-3-yl)-9-ethyl-9H-purin-6-amine]",remaining activity at 10 µM,ULK1,70.3%
same,remaining activity at 10 µM,MYLK2,60%
same,remaining activity at 10 µM,CAMK1b,66.8%
same,remaining activity at 10 µM,MAP4K2,58.4%
same,remaining activity at 10 µM,CSNK2A2,91.3%
same,remaining activity at 10 µM,MARK4,66.9%
same,remaining activity at 10 µM,ACVR1B,132%
same,remaining activity at 10 µM,PAK5,7.6%
same,remaining activity at 10 µM,MKK7,96.3%
same,remaining activity at 10 µM,ABL1,61.2%
same,remaining activity at 10 µM,P38-alpha,84.2%
same,remaining activity at 10 µM,[1],115%
same,remaining activity at 10 µM,PAK3,29.1%
same,inhibition at 10 µM,CDK9/cyclinT1,> 95%
same,remaining activity at 10 µM,CDK9/cyclinT1,0.8%
same,remaining activity at 10 µM,MNK2,91.2%
same,remaining activity at 10 µM,ERK7,13.5%
same,remaining activity at 10 µM,ERK1,9.4%
same,remaining activity at 10 µM,DAPK1,99.7%
same,remaining activity at 10 µM,EPHB4,23.2%
same,remaining activity at 10 µM,MET,96.4%
same,remaining activity at 10 µM,TNK1,91.3%
same,remaining activity at 10 µM,EPHA3,7.8%
same,remaining activity at 10 µM,PRKCQ,79.8%
same,remaining activity at 10 µM,VRK2,96.6%
same,remaining activity at 10 µM,DAPK3,80.8%
same,remaining activity at 10 µM,DYRK2,22.3%
same,remaining activity at 10 µM,IKK-alpha,71.5%
same,remaining activity at 10 µM,JAK2,87%
same,remaining activity at 10 µM,MYLK3,105%
same,remaining activity at 10 µM,Src,60.1%
same,remaining activity at 10 µM,CAMK2a,64%
same,remaining activity at 10 µM,PLK3,94.4%
same,remaining activity at 10 µM,CSNK1G3,24.4%
same,remaining activity at 10 µM,JAK1,92.1%
same,remaining activity at 10 µM,STK33,33.5%
same,remaining activity at 10 µM,TEC,71.5%
same,remaining activity at 10 µM,MAP3K1,87%
same,remaining activity at 10 µM,CDC7/DBF4,98.2%
same,remaining activity at 10 µM,VEGFR2,88.6%
same,remaining activity at 10 µM,FYN,81%
same,remaining activity at 10 µM,MLK2,62.3%
same,remaining activity at 10 µM,CAMK1a,34%
same,remaining activity at 10 µM,PAK6,57.2%
